The source of these data is PubChem BioAssay (NCI).

Structures are written as SMILES.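 Each compound was tested at five concentrations against cells in 96-well plates for 48 hours. Definition used: TGI = concentration required for complete inhibition of growth.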

Test systems include RPMI-8226 leukemia; NCI-H460 lung; CAKI-1 renal; DU-145 prostate; SK-MEL-2 melanoma; HCT-15 colon; 786-0 renal; SF-539 CNS; OVCAR-5 ovarian; UACC-257 melanoma; NCI-H522 lung; HCC-2998 colon; MDA-MB-231 breast; UACC-62 melanoma; HL-60(TB) leukemia; LOX IMVI melanoma; EKVX NSCLC; MCF7 breast.
Common to all, as to assay: growth of human tumour cells (NCI), 48 h

Consider `COc1ccccc1NC(=S)NNC(=O)c1cc(-c2ccccc2)nc2ccccc12`, for which the TGI worked out at 53.6 µM in the experiment with RPMI-8226 leukemia; 98 µM with NCI-H460 lung; 39.5 µM in the experiment with CAKI-1 renal; 32 µM in the experiment on DU-145 prostate; 31.2 µM with SK-MEL-2 melanoma; 20.2 µM in the experiment with HCT-15 colon. The TGI with 786-0 renal amounted to 32.8 µM; in the experiment on SF-539 CNS, 28.1 µM; with OVCAR-5 ovarian, 47 µM; in the experiment on UACC-257 melanoma it was 57.8 µM; in the experiment on NCI-H522 lung, 50 µM; with HCC-2998 colon, 28.6 µM. The TGI in the experiment with MDA-MB-231 breast amounted to 63.7 µM; in the experiment on UACC-62 melanoma, 23.2 µM.
Turning to `CC(Cc1ccc(O)cn1)(NC(=O)c1ccccc1)C(=O)O` (stereo unspecified), the TGI in the experiment with HL-60(TB) leukemia, with RPMI-8226 leukemia, in the experiment on NCI-H460 lung, with CAKI-1 renal, in the experiment with DU-145 prostate and with SK-MEL-2 melanoma was above 100 µM in each case. Besides, the TGI in the experiment on HCT-15 colon, in the experiment with 786-0 renal, with SF-539 CNS, in the experiment with LOX IMVI melanoma, in the experiment on OVCAR-5 ovarian and in the experiment on UACC-257 melanoma was above 100 µM in each case. Also, the TGI in the experiment on EKVX NSCLC, in the experiment with NCI-H522 lung, with HCC-2998 colon, with MDA-MB-231 breast and in the experiment with UACC-62 melanoma was above 100 µM each time.
As to `Cc1c(/C=N/NC(=S)Nc2ccc([N+](=O)[O-])cc2)c(=O)n(-c2ccccc2)n1C`, the TGI in the experiment on HL-60(TB) leukemia is above 100 µM; with RPMI-8226 leukemia, above 100 µM; in the experiment with CAKI-1 renal, 18.9 µM; in the experiment on SK-MEL-2 melanoma it was 30.5 µM; with HCT-15 colon, 49.4 µM; with 786-0 renal, 27.3 µM. Also, the TGI with SF-539 CNS was 30 µM; with LOX IMVI melanoma, 33.3 µM; in the experiment with MCF7 breast, 50 µM; in the experiment on UACC-257 melanoma, above 100 µM; with EKVX NSCLC it was 24.5 µM; in the experiment with HCC-2998 colon it was above 100 µM. For the same molecule, the TGI in the experiment on MDA-MB-231 breast turned out to be 49.2 µM; in the experiment with UACC-62 melanoma, 33.7 µM.
Take `COc1ccc(-c2cc(=O)c3cc4c(cc3[nH]2)OCO4)c(OC)c1`: the TGI is 46.3 µM with HL-60(TB) leukemia; above 100 µM in the experiment on RPMI-8226 leukemia; above 100 µM in the experiment on NCI-H460 lung; above 100 µM with CAKI-1 renal; above 100 µM with SK-MEL-2 melanoma; above 100 µM in the experiment on HCT-15 colon. In addition, the TGI in the experiment with 786-0 renal, with SF-539 CNS, in the experiment with LOX IMVI melanoma, in the experiment on EKVX NSCLC, in the experiment with NCI-H522 lung and with HCC-2998 colon was above 100 µM in each case. The same molecule showed a TGI in the experiment on UACC-62 melanoma above 100 µM.
On to `CC1(C)OP(=O)(c2ccccc2)C=C1Br` (stereo unspecified), for which the TGI in the experiment on HL-60(TB) leukemia, in the experiment on RPMI-8226 leukemia, in the experiment on NCI-H460 lung, in the experiment with CAKI-1 renal, in the experiment on DU-145 prostate and in the experiment on SK-MEL-2 melanoma was above 100 µM throughout. Besides, the TGI with HCT-15 colon, in the experiment with 786-0 renal, in the experiment with SF-539 CNS, with LOX IMVI melanoma, in the experiment on OVCAR-5 ovarian and with UACC-257 melanoma was above 100 µM throughout. The TGI in the experiment with EKVX NSCLC, in the experiment with NCI-H522 lung, with HCC-2998 colon and in the experiment with UACC-62 melanoma was above 100 µM throughout.
Regarding `CC[C@H](C)[C@H](NC(=O)[C@H](Cc1ccc(O)cc1)NCC(F)(F)F)C(=O)OC(C)(C)C`, the TGI amounted to 23.5 µM with RPMI-8226 leukemia; 14.1 µM with NCI-H460 lung; 15.7 µM in the experiment with CAKI-1 renal; 13.9 µM in the experiment on SK-MEL-2 melanoma; 34.2 µM with HCT-15 colon; 16.1 µM in the experiment on 786-0 renal. Further, the TGI is 21 µM in the experiment on SF-539 CNS; 17.5 µM in the experiment with LOX IMVI melanoma; 18 µM in the experiment on OVCAR-5 ovarian; 19.4 µM with MCF7 breast; 14.7 µM in the experiment on UACC-257 melanoma; 15.1 µM in the experiment on EKVX NSCLC. The TGI amounted to 20.1 µM in the experiment with NCI-H522 lung, 15.8 µM with HCC-2998 colon, 15.5 µM with MDA-MB-231 breast and 12.9 µM in the experiment on UACC-62 melanoma.
Regarding `Nc1ccc(N=Nc2ccc(-c3ccc(N=Nc4c(S(=O)(=O)O)cc5cc(S(=O)(=O)O)c(N=Nc6ccc([N+](=O)[O-])cc6)c(N)c5c4O)cc3)cc2)c2cc(S(=O)(=O)O)ccc12`, the TGI with HL-60(TB) leukemia, in the experiment with RPMI-8226 leukemia, in the experiment on NCI-H460 lung, in the experiment on CAKI-1 renal, with SK-MEL-2 melanoma and with HCT-15 colon was above 100 µM in each case. For the same molecule, the TGI in the experiment on 786-0 renal, in the experiment with SF-539 CNS, with LOX IMVI melanoma, with OVCAR-5 ovarian, with UACC-257 melanoma and in the experiment on EKVX NSCLC was above 100 µM in each case. Further, the TGI in the experiment on NCI-H522 lung, in the experiment on HCC-2998 colon and in the experiment on UACC-62 melanoma was above 100 µM each time.
As for `CC1=N/C(=C\c2ccc(N)cc2)C(=O)N1Nc1nnc(NN2C(=O)/C(=C/c3ccc(N)cc3)N=C2C)c2ccccc12`, the TGI with HL-60(TB) leukemia is 56.1 µM; with RPMI-8226 leukemia, above 100 µM; in the experiment with NCI-H460 lung it was above 100 µM; in the experiment with HCT-15 colon it was above 100 µM; in the experiment on 786-0 renal it was above 100 µM; with SF-539 CNS, above 100 µM. For the same molecule, the TGI in the experiment with LOX IMVI melanoma was above 100 µM; in the experiment with OVCAR-5 ovarian it was above 100 µM; with UACC-257 melanoma, above 100 µM; in the experiment on EKVX NSCLC, above 100 µM; in the experiment on NCI-H522 lung, 41.7 µM; in the experiment with UACC-62 melanoma, above 100 µM.
Regarding `N#Cc1nc(/C=C/c2cccs2)oc1N`, the TGI in the experiment on HL-60(TB) leukemia, in the experiment on RPMI-8226 leukemia, with CAKI-1 renal, with DU-145 prostate, in the experiment with SK-MEL-2 melanoma and in the experiment with HCT-15 colon was above 100 µM in each case. The TGI in the experiment with 786-0 renal, with LOX IMVI melanoma, in the experiment on OVCAR-5 ovarian, in the experiment on MCF7 breast, with UACC-257 melanoma and with EKVX NSCLC was above 100 µM each time. The TGI in the experiment with MDA-MB-231 breast and with UACC-62 melanoma was above 100 µM throughout.
